Measurements published in patent US20250179121A1, “CYCLOSPORINE COMPOSITIONS AND METHODS OF USE” (Bacainn Biotherapeutics, Ltd., priority 2018, published 2025).
“And” between values parts separate entries of the source, which are not always exact repeats. Equal values may be shown once.

Legend:
[1] = Rat PK, plasma concentrations after oral dosing; assay type: in vivo, Sprague-Dawley rats; conditions: for plasma concentration of BT070 (breakdown product of BT051): individual animals A-E
Description: [Worded in the source for another target; this target is reported under the same test.] Blood samples were collected at the indicated time points and processed to plasma. Plasma concentrations of BT090 were assayed by LC-MS/MS. Feces were collected over t=0 to 4 h, 4-8 h, and 8-24 h, homogenized in buffer and assayed for BT090 concentrations by LC-MS/MS. Total feces weight collected for each time interval was recorded. BT090 was formulated in 1% NMP, 0.3% Tween-80 in 0.5% methylcellulose.

neutrophil migration = experiment: PMN transmigration assay (T84 monolayer infected with Salmonella typhimurium, MPO readout); assay type: cell-based, human
Description: PMN transmigration assay. T84 colorectal cancer cells were grown to confluence on the bottom side of 12 well polycarbonate membrane inserts of a 24 well Transwell® plate. The confluent growth of these epithelial cells results in physiologically-relevant apical (luminal) and basolateral surfaces in the transwells. […] The monolayer was then infected on the apical surface with Salmonella typhimurium for 2 hours to induce hepoxilin A3 (HXA3) efflux through the MRP2 membrane protein and into the apical chamber. […] Freshly isolated and prepared human neutrophils were then added to the basolateral side and allowed to transmigrate through the monolayer for 2 hours. The number of neutrophils migrated to the apical chamber (due to the HXA3 gradient) was then assayed by determination of myeloperoxidase activity (a neutrophil biomarker). Inhibition of transmigration is indicated by lower MPO activity in the apical chamber.

[2] = Amount excreted in feces after oral dosing in rats; assay type: in vivo, Sprague-Dawley rats; conditions: rat; for Conc. in feces: BT070 10 mg/kg oral, individual animals A-C, corrected for the 1:9 dilution factor
[3] = BT070 10 mg/kg oral, rat, individual animals A-C, 10 mg/kg

Question: Which “plasma concentration, Mean” value ([1]; BT070 10 mg/kg oral, rat, 0.5 h, mean) does the source give for `CC[C@@H]1NC(=O)[C@H]([C@H](O)[C@H](C)CCCCCC(=O)O)N(C)C(=O)[C@H](C(C)C)N(C)C(=O)[C@H](CC(C)C)N(C)C(=O)[C@H](CC(C)C)N(C)C(=O)[C@@H](C)NC(=O)[C@H](C)NC(=O)[C@H](CC(C)C)N(C)C(=O)[C@H](C(C)C)NC(=O)[C@H](CC(C)C)N(C)C(=O)CN(C)C1=O` [BT070] here?
Answer: 3588.6 ng/mL

Question: And the “plasma concentration, Mean” value ([1]; BT070 10 mg/kg oral, rat, 1 h, mean)?
Answer: 2301.5 ng/mL

Question: What about the “plasma concentration, Mean” value ([1]; BT070 10 mg/kg oral, rat, 2 h, mean) of the same molecule?
Answer: 1522.8 ng/mL

Question: And the “plasma concentration, Mean” value ([1]; BT070 10 mg/kg oral, rat, 4 h, mean)?
Answer: 829.6 ng/mL

Question: What about the “plasma concentration, Mean” value ([1]; BT070 10 mg/kg oral, rat, 6 h, mean) of the same molecule?
Answer: 488.3 ng/mL

Question: And the “plasma concentration, Mean” value ([1]; BT070 10 mg/kg oral, rat, 8 h, mean)?
Answer: 293.9 ng/mL

Question: And the “plasma concentration, Mean” value ([1]; BT070 10 mg/kg oral, rat, 24 h, mean)?
Answer: 101.2 ng/mL

Question: What about the AUCinf [1, 3] of the same molecule?
Answer: 17616.8 ng/mL * h and 19158.4* ng/mL * h and 7432.0 ng/mL * h

Question: And the AUClast [1, 3]?
Answer: 17560.9 ng·h/mL and 11798.3 ng·h/mL and 7249.5 ng·h/mL

Question: And the “AUCinf, Mean” value ([1]; BT070 10 mg/kg oral, rat, mean)?
Answer: 14735.7 ng·h/mL

Question: And the “AUClast, Mean” value ([1]; BT070 10 mg/kg oral, rat, mean)?
Answer: 12202.9 ng·h/mL

Question: What about the “plasma concentration of BT070 (breakdown product of BT051)” value ([1]; after BT051 10 mg/kg oral, rat, 0.5 h) of the same molecule?
Answer: 3.3 ng/mL and NQ (Not quantifiable. No peak or below limit of quantification (LOQ = 2.5 ng/mL)) (4×)

Question: And the “plasma concentration of BT070 (breakdown product of BT051), Mean” value ([1]; after BT051 10 mg/kg oral, rat, 0.5 h, mean)?
Answer: 3.3 ng/mL

Question: What about the “plasma concentration of BT070 (breakdown product of BT051)” value ([1]; after BT051 10 mg/kg oral, rat, 1 h) of the same molecule?
Answer: NQ (Not quantifiable. No peak or below limit of quantification (LOQ = 2.5 ng/mL))

Question: What about the “plasma concentration of BT070 (breakdown product of BT051)” value ([1]; after BT051 10 mg/kg oral, rat, 2 h) of the same molecule?
Answer: NQ (Not quantifiable. No peak or below limit of quantification (LOQ = 2.5 ng/mL))

Question: What about the “plasma concentration of BT070 (breakdown product of BT051)” value ([1]; after BT051 10 mg/kg oral, rat, 4 h) of the same molecule?
Answer: NQ (Not quantifiable. No peak or below limit of quantification (LOQ = 2.5 ng/mL))

Question: And the “plasma concentration of BT070 (breakdown product of BT051)” value ([1]; after BT051 10 mg/kg oral, rat, 6 h)?
Answer: NQ (Not quantifiable. No peak or below limit of quantification (LOQ = 2.5 ng/mL))

Question: And the “plasma concentration of BT070 (breakdown product of BT051)” value ([1]; after BT051 10 mg/kg oral, rat, 8 h)?
Answer: NQ (Not quantifiable. No peak or below limit of quantification (LOQ = 2.5 ng/mL))

Question: What about the “plasma concentration of BT070 (breakdown product of BT051)” value ([1]; after BT051 10 mg/kg oral, rat, 24 h) of the same molecule?
Answer: NQ (Not quantifiable. No peak or below limit of quantification (LOQ = 2.5 ng/mL))

Question: And the “Cmax of BT070 (breakdown product of BT051)” value ([1]; after BT051 10 mg/kg oral, rat, individual animals)?
Answer: 3.3 ng/mL

Question: And the “Cmax of BT070 (breakdown product of BT051), Mean” value ([1]; after BT051 10 mg/kg oral, rat, mean)?
Answer: 3.3 ng/mL

Question: What about the “detection in the plasma from 15 minutes to 24 hours” value ([1]; compound dosed orally in rats at 10 mg/kg) of the same molecule?
Answer: present in the plasma in all subject rats

Question: And the “oral bioavailability of the breakdown product of BT051” value ([1]; following oral administration of BT051 in rats at 10 mg/kg)?
Answer: not orally bioavailable

Question: And the “inhibition of neutrophil migration, dose-response” value (neutrophil migration; FIG. 1)?
Answer: dose-responsive inhibition

Question: What about the “inhibition of neutrophil migration” value (neutrophil migration; dose of 100 nM) of the same molecule?
Answer: exhibit inhibition of neutrophil migration

Question: And the IC50 (neutrophil migration; read-out: compound concentration at which 50% inhibition of neutrophil migration was observed, FIG. 1 dose-response)?
Answer: 31.2 nM

Question: And the Conc. in feces ([2]; 0-4 h)?
Answer: NQ (Not quantifiable. No peak or below limit of quantification (LOQ = 1000 ng/mL))

Question: And the Conc. in feces ([2]; 4-8 h)?
Answer: NQ (Not quantifiable. No peak or below limit of quantification (LOQ = 1000 ng/mL))

Question: What about the “Total amount of BT070 (breakdown product of BT051) excreted in feces” value ([2]; after BT051 10 mg/kg oral, 0-48 h, individual animals A-D) of the same molecule?
Answer: 36.9 µg and 33.4 µg and 41.4 µg and 38.5 µg

Question: What about the “Amount of BT070 (breakdown product of BT051) excreted in feces” value ([2]; after BT051 10 mg/kg oral, 8-24 h, individual animals A-D) of the same molecule?
Answer: 31.2 µg and 14.3 µg and 10.6 µg and 34.8 µg

Question: What about the “Amount of BT070 (breakdown product of BT051) excreted in feces” value ([2]; after BT051 10 mg/kg oral, 24-48 h, individual animals A-D) of the same molecule?
Answer: 5.7 µg and 19.1 µg and 30.8 µg and 3.7 µg
